Data published in patent US11827628B2, “Compositions and methods for inhibition of the JAK pathway” (Rigel Pharmaceuticals, Inc., priority 2005, dated 2023).
Like-named read-outs stand apart in the source and are kept apart here. Each block holds one molecule with its values, some of them ahead of it.

System: IL-4 stimulated expression of CD23 in human Ramos B cells (JAK-1 and JAK-3)
Test: Assay for Ramos B-Cell Line Stimulated with IL-4 (CD23 upregulation, FACS)
Type: cell-based
Settings: read-out: IC50, Example 41
Outline: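 Log-phase Ramos cells, 1 h compound pre-incubation at 37 °C; IL-4 50 units/mL final, 20-24 h; CD23-PE stain, FACS; IC50.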

[1] = Ramos B cells stimulated with IL-4, CD23 expression by FACS
[2] = Homo sapiens, Ramos, Ramos B cells stimulated with IL-4, CD23 expression by FACS
[3] = Ramos B-cell line stimulated with IL-4, CD23 expression by FACS
[4] = Homo sapiens, Ramos, Ramos B-cell line stimulated with IL-4, CD23 expression by FACS

SMILES: NC(=O)COc1cccc(Nc2nc(Nc3cccc(S(N)(=O)=O)c3)ncc2F)c1 [Compound I-88, N4-(3-Aminocarbonylmethoxy)phenyl-N2-(3-aminosulfonyl)phenyl-5-fluoro-2,4-pyrimidinediamine]
IC50 [3]: 1080 nM

SMILES: CCC(=O)NS(=O)(=O)c1cc(Nc2ncc(F)c(Nc3ccc(OCC(=O)OC)cc3)n2)ccc1C [Compound I-213, 5-Fluoro-N4-(4-methoxycarbonylmethoxyphenyl)-N2-(4-methyl-3-propionylaminosulfonylphenyl)-2,4-pyrimidinediamine]
IC50 [4]: 11500 nM

SMILES: CC(=O)NS(=O)(=O)c1cc(Nc2ncc(F)c(Nc3ccc(OCC#N)cc3)n2)ccc1C [Compound I-36, N2-(3-Acetylaminosulfonyl-4-methyl)phenyl-N4-(4-cyanomethyleneoxy)phenyl-5-fluoro-2,4-pyrimidinediamine]
IC50 [3]: 8800 nM

SMILES: CNC(=O)COc1ccc(Nc2nc(Nc3cccc(S(N)(=O)=O)c3)ncc2F)cc1 [Compound I-144, N2-(3-Aminosulfonylphenyl)-5-fluoro-N4-(4-methylaminocarbonylmethoxyphenyl)-2,4-pyrimidinediamine]
IC50 [4]: 1010 nM

SMILES: COc1cc(Nc2nc(Nc3ccc(S(N)(=O)=O)cc3)ncc2F)ccc1OCC(N)=O [Compound I-103, N4-(4-Aminocarbonylmethoxy-3-methoxyphenyl)-N2-(4-aminosulfonylphenyl)-5-fluoro-2,4-pyrimidinediamine]
IC50 [4]: 1250 nM

SMILES: CCC(=O)NS(=O)(=O)c1cccc(Nc2ncc(F)c(Nc3ccc(OCc4cc(C)on4)cc3)n2)c1 [Compound I-236]
IC50 [3]: 1980 nM

Second part, the molecule after the results:

IC50 [1]: 47100 nM
SMILES: CC1(C)Oc2cc(Nc3nc(Nc4ccc(S(N)(=O)=O)cc4)ncc3F)cnc2NC1=O [VII-52, N2-(4-Aminosulfonylphenyl)-N4-[2,2-dimethyl-3-oxo-4H-5-pyrid[1,4]oxazin-7-yl]-5-fluoro-2,4-pyrimidinediamine]

IC50 [2]: 6410 nM
SMILES: NC(=O)c1c[nH]c2cc(Nc3nc(Nc4ccc(Cl)c(S(N)(=O)=O)c4)ncc3F)ccc12 [IX-10, N4-[3-(Aminocarbonyl)-1H-indol-6-yl]-N2-(3-aminosulfonyl-4-chlorophenyl)-5-fluoro-2,4-pyrimidinediamine]

IC50 [2]: 117 nM
SMILES: CNS(=O)(=O)c1ccc(Nc2ncc(F)c(Nc3ccc(Cl)c(C(F)(F)F)c3)n2)cc1OC [IX-52, N4-(4-Chloro-3-trifluoromethylphenyl)-5-fluoro-N2-[4-(N-methyl)aminosulfonyl-3-methoxyphenyl]-2,4-pyrimidinediamine]

IC50 [3]: 1010 nM
SMILES: NS(=O)(=O)c1ccc(Nc2ncc(F)c(Nc3ccc(CNC(=O)C4CC4)cc3)n2)cc1 [III-41, N2-(4-aminosulfonyl)phenyl-N4-(4-cyclopropylcarbonylaminomethyl)phenyl-5-fluoro-2,4-pyrimidinediamine]

IC50 [3]: 3230 nM
SMILES: CCC(=O)NS(=O)(=O)c1cccc(Nc2ncc(F)c(Nc3ccc(Cc4ccncc4)cc3)n2)c1 [III-68]

IC50 [1]: 8620 nM
SMILES: CCOC(=O)CN(c1ccc(OC)c(Cl)c1)c1nc(Nc2cccc(S(N)(=O)=O)c2)ncc1C(=O)OCC [VI-24, N2-(3-Aminosulfonylphenyl)-5-carboethoxy-N4-(N-carboethoxymethylene-N-3-chloro-4-methoxyphenyl)-2,4-pyrimidinediamine]

IC50 [1]: 4130 nM
SMILES: Cc1ccc(Nc2ncc(F)c(NC3CN(C(=O)CC#N)CCC3C)n2)cc1S(N)(=O)=O (racemic) [VII-5, Racemic N2-(3-aminosulfonyl-4-methylphenyl)-N4-(1-cyanomethylenecarbonyl-4-methylpiperidin-3-yl)-5-fluoro-2,4-pyrimidinediamine]

IC50 [3]: 536 nM
SMILES: N#CCc1ccc(Nc2nc(Nc3ccc(S(N)(=O)=O)cc3)ncc2F)cc1 [III-3, N2-(4-Aminosulfonyl)phenyl-N4-(4-cyanomethyl)phenyl-5-fluoro-2,4-pyrimidinediamine]

IC50 [2]: 240 nM
SMILES: CNS(=O)(=O)c1ccc(Nc2ncc(F)c(Nc3cc(OC)cc(OC)c3)n2)cc1OC [IX-51, N4-(3,5-Dimethoxyphenyl)-5-fluoro-N2-[4-(N-methyl)aminosulfonyl-3-methoxyphenyl]-2,4-pyrimidinediamine]
